The record followed here is US9949979B2, “Use of inhibitors of the activity or function of PI3K” (NOVARTIS AG, priority 2011, dated 2018).

This experiment relates to isolated human pDCs. Kind of experiment: P. falciparum nuclear extract-induced IFNα production in human pDCs. The note with it: for IFNα level: nuclear extract. The class given is cell-based. Here is the method:
Human PBMCs were prepared using Buffy Coats as source material from healthy donations (approx. 50 ml obtained from Blutspendezentrum SRK Basel) and processed as indicated above. Fresh PBMCs were resuspended and diluted in RoboSep™ buffer (PBS containing 2% v/v FBS, 1 mM EDTA (Gibco #15575-038) to obtain a final concentration of 50×10^6 PBMCs/ml. Human pDCs (negative selection) were isolated using plasmacytoid DC Enrichment kit (Stemcell, #19062) using an automation RobSep™ station as described according to manufacturer protocols. Typical pDC yields were approx. 0.1% of total PBMCs and with a purity>90%. Isolated pDCs were diluted to 4×10^5 cells/ml and seeded in 384-well plates (#353962; Becton Dickinson AG) to give a final volume of 25 μl (i.e. 1×10^4 cells/well). For stimulation using malaria nuclear extact (see below), pDCs were seeded at a final concentration of 5×10^4 cells/well.
The preparation of the nuclear extract of plasmodium falciparum was performed according to Gowda et al [Gowda et al. “The Nucleosome (Histone-DNA Complex) Is the TLR9-Specific Immunostimulatory Component of Plasmodium falciparum That Activates DCs”, PLoS ONE 2011]. In brief, Plasmodium falciparum 3D7 parasites were cultured in human red blood cell at 2% hematocrit. When the parasite was at late trophozoite and schizont stages, the infected red blood cells (IRBCs) were harvested by centrifugation and the pellets were re-suspended in 20 volumes of 0.1% saponin (m/v) in PBS, pH 7.2. The re-suspension was incubated on ice for 10 minutes and centrifuged at 2,500 g at 4° C. for 15 min. The pellet was re-suspended in the above solution, incubated on ice for 10 min and centrifuged at 2,500 g at 4° C. for 15 min. The parasite pellet thus obtained was washed 3 times with cold PBS, pH 7.2, by centrifugation. Each time 35 ml of cold PBS was used. The pellet obtained after the last centrifugation was suspended in 10 volumes of lysis buffer (20 mM HEPES, pH 7.5, 10 mM KCl, 1 mM EDTA, 1 mM dithiothreitol, 1 mM phenylmethylsulfonyl fluoride (PMSF) and 1% Triton X-100) and incubated on ice for 5 min. The suspension was centrifuged at 5,000 g at 4° C. for 10 min, and nuclear material was washed three times with the lysis buffer to remove membrane components. The nuclear material was re-suspended in PBS, pH 7.2. Insoluble material was subsequently solubilized by using a water-bath sonicator.
Compounds were pre-diluted in 100% v/v DMSO (#41640-100 mL; Sigma-Aldrich), followed by transfer in Media (to achieve a final DMSO concentration of 0.25%). Cells were treated with appropriate compound dilution (5 μl) or vehicle control (5 μl) and incubated for 30 min at 37° C. in a humidified incubator in air with 5% (v/v) CO2. Cells were stimulated with CpG2216 (0.3 μM; #tlrl-hodna; Invivogen), malaria nuclear extract (2.5 μg/ml; see above for preparation) or vehicle control (10 μl/well) and incubated for 20 h. Plates were briefly centrifuged (200×g for 2 min at 22° C.) and supernatant samples (30 μl) removed for quantification of IFNα levels.
For quantification of IFNalpha the human interferon AlphaLISA Kit (#AL264F) from PerkinElmer was used. An antibody mix containing anti-IFNα acceptor beads (5 μg/ml final) and biotinylated antibody anti-IFNα(0.5 nM final) is prepared fresh and dispensed (5 μl) into 384-well Optiplates™ (#6007299; PerkinElmer). Dilution of known IFNα standards (human IFNα B (2b)) were prepared and together with cell supernatants (5 μl) were added to plates above. Plates were briefly centrifuged (pulse at 200 g), covered with adhesive sealing film, vortexed and incubated 1 h at room temperature in the dark. Streptavidin-coated donor beads (20 μg/ml final) was prepared and added to each well (5 μl) in a dark lit area (light sensitive mix). Plates were incubated 30 min at room temperature (Plates must not be centrifuged or covered). […]

On to `CCC(=O)N1CC[C@H](Nc2ncnc3c2CN(c2cnc(OC)c(C(F)(F)F)c2)CC3)C1` [Example 67, 1-{(S)-3-[6-(6-Methoxy-5-trifluoromethyl-pyridin-3-yl)-5,6,7,8-tetrahydro-pyrido[4,3-d]pyrimidin-4-ylamino]-pyrrolidin-1-yl}-propan-1-one], for which, where the note is “compound 0.01 μM, read-out: % inh. of IFNα by nuclear extract”, the inhibition at 0.01 µM worked out at 25%. Also, for the setting “compound 0.1 μM, read-out: % inh. of IFNα by nuclear extract”, the inhibition at 0.1 µM turned out to be 64%. In addition, the inhibition at 1 µM (compound 1 μM, read-out: % inh. of IFNα by nuclear extract) was 77%. Also, the “IFNα level” value (compound 0.01 μM) is 4084 pg/mL, the “IFNα level” value (compound 0.1 μM) was determined as 2110 pg/mL and the “IFNα level” value (compound 1 μM) came out at 1483 pg/mL.
